Data taken from US20080175902A1, “Methods for slowing the progression of multiple sclerosis” (University of Plymouth, priority 2006, published 2008).

Columns and labels:
[1] = tested on: patients with multiple sclerosis; assay: Category-rating scales of symptoms, 15 week study; format: in vivo, human; conditions: category rating vs before study start
Description: Secondary outcomes were also measured in the above-described study. Such secondary outcomes included the Rivermead mobility index (See e.g. Collen, F. M. et al., The Rivermead mobility index: a further development of the Rivermead motor assessment. Int. Disanil. Stud. 1991; 13:50 54) hereby incorporated by reference in its entirety, a timed 10 meter walk, four self completion questionnaires—the United Kingdom neurological disability score (See e.g. Sharrack, B., Hughes R. A., The Guy's neurological disability scale (GNDS): a new disability measure for multiple sclerosis. Mult. Sder. 1999; 5: 223-33), and a series of nine category-rating scales. For the category-rating scale assessment, patients were asked to assess how their symptoms had been over the previous week compared with how they were just before the study started. Categories included irritability, depression, tiredness, muscle stiffness, tremor, pain, sleep, muscle spasms, and amount of energy.
Category rating scales were used to assess whether patients felt their symptoms had improved while on treatment relative to before start of treatment. Overall, patients felt that symptoms of pain, sleep quality, spasms, and had improved while on active treatment.

[2] = tested on: patients with multiple sclerosis; assay: Rivermead Mobility Index (RMI), 52 week follow up; format: in vivo, human; conditions: FIG. 6
Excerpt: In order to reduce the potential for unmasking bias from treatment side effects, two study personnel were used at each centre. A treating physician monitored the dosage, side effects, and patient wellbeing, while an assessor (usually a physiotherapist) measured the Ashworth score, timed 10 metre walk, and Rivermead Mobility Index (RMI). […] Assessors remained blinded to any discussion of dosage or side effects, and when evaluating patients' spasticity, were instructed not to have access to their assessment scores from previous visits. […]
Times taken to complete a 10 metre walk were analysed using the Kruskal-Wallis test, and non-parametric methods were used to produce confidence intervals for the median. The RMI, UKNDS, postal BI, and GHQ-30 were each analysed using non-parametric analysis of variance to compare the groups. EDSS scores were analysed using Fisher's exact test. Category rating scales were analysed using contingency table analysis. […]

[3] = tested on: patients with multiple sclerosis; assay: Serious adverse events (hospital admissions), 52 week follow up; format: in vivo, human
Excerpt: During this study, all hospital admissions were classed as serious adverse events.

[4] = tested on: patients with multiple sclerosis; assay: Adverse events reported by patients, 15 week study

CCCCCc1cc(O)c2c(c1)OC(C)(C)[C@@H]1CCC(C)=C[C@@H]21 (relative stereo) [delta-9-THC, Delta-9-Tetrahydrocannabinol]
Irritability: Deterioration, number of patients [1]: 32 | Irritability: Improvement, % of patients [1]: (33%) | Irritability: Improvement, number of patients [1]: 37 | Irritability: Same, % of patients [1]: (38%) | Irritability: Same, number of patients [1]: 42 | Pain: Deterioration, % of patients [1]: (17%) | Pain: Deterioration, number of patients [1]: 22 | Pain: Improvement, % of patients [1]: (50%) | Pain: Improvement, number of patients [1]: 64 | Pain: Same, % of patients [1]: (33%) | Pain: Same, number of patients [1]: 43 | Shake/tremor: Deterioration, % of patients [1]: (25%) | Shake/tremor: Deterioration, number of patients [1]: 32 | Shake/tremor: Improvement, % of patients [1]: (41%) | Shake/tremor: Improvement, number of patients [1]: 52 | Shake/tremor: Same, % of patients [1]: (34%) | Shake/tremor: Same, number of patients [1]: 44 | Sleep: Deterioration, % of patients [1]: (16%) | Sleep: Deterioration, number of patients [1]: 24 | Sleep: Improvement, % of patients [1]: (47%) | Sleep: Improvement, number of patients [1]: 71 | Sleep: Same, % of patients [1]: (38%) | Sleep: Same, number of patients [1]: 57 | Spasms: Deterioration, % of patients [1]: (22%) | Spasms: Deterioration, number of patients [1]: 27 | Spasms: Improvement, % of patients [1]: (49%) | Spasms: Improvement, number of patients [1]: 81 | Spasms: Same, % of patients [1]: (29%) | Spasms: Same, number of patients [1]: 49 | Spasticity: Deterioration, % of patients [1]: (27%) | Spasticity: Deterioration, number of patients [1]: 47 | Spasticity: Improvement, % of patients [1]: (51%) | Spasticity: Improvement, number of patients [1]: 89 | Spasticity: Same, % of patients [1]: (23%) | Spasticity: Same, number of patients [1]: 40 | Tiredness: Deterioration, % of patients [1]: (48%) | Tiredness: Deterioration, number of patients [1]: 76 | Tiredness: Improvement, % of patients [1]: (22%) | Tiredness: Improvement, number of patients [1]: 35 | Tiredness: Same, % of patients [1]: (29%) | Tiredness: Same, number of patients [1]: 46 | treatment effect on Rivermead Mobility Index [2]: Suggestion of treatment effect | serious adverse events reported (total number) ([3]; 52 week follow up, all hospital admissions): 24 | Serious adverse event: Insertion of baclofen pump (frequency) ([3]; CM): 0 | Serious adverse event: Limb fracture (frequency) ([3]; CM): 0 | Serious adverse event: Other (frequency) ([3]; CM): 8 | Serious adverse event: Pneumonia/chest infection (frequency) ([3]; CM): 1 | Serious adverse event: Relapse/possible relapse (frequency) ([3]; CM): 8 | Serious adverse event: Seizure (frequency) ([3]; CM): 0 | Serious adverse event: Urinary tract infection (frequency) ([3]; CM): 3 | Serious adverse events: No. of events ([3]; CM): 20 | Serious adverse events: no. of patients ([3]; CM): 18 | Serious adverse event: Insertion of baclofen pump (frequency) ([3]; DM): 0 | Serious adverse event: Limb fracture (frequency) ([3]; DM): 0 | Serious adverse event: Other (frequency) ([3]; DM): 2 | Serious adverse event: Pneumonia/chest infection (frequency) ([3]; DM): 0 | Serious adverse event: Relapse/possible relapse (frequency) ([3]; DM): 2 | Serious adverse event: Seizure (frequency) ([3]; DM): 0 | Serious adverse event: Urinary tract infection (frequency) ([3]; DM): 0 | Serious adverse events: No. of events ([3]; DM): 4 (4) | Serious adverse events: no. of patients ([3]; DM): 4 (4) | Adverse event: Blocked/insertion of suprapubic catheter (number) [4]: 0 | Adverse event: Constipation (number) [4]: 0 | Adverse event: Grand mal seizure (number) [4]: 0 | Adverse event: MS relapse or possible relapse (number) [4]: 1 | Adverse event: Other (number) [4]: 11 | Adverse event: Pneumonia (number) [4]: 2 | Adverse event: Urinary tract infection (number) [4]: 3
